Experimental data taken from the supplement of paper PMC10307832.

Legend:
Assay in all cases: relative viability (nuclei count vs DMSO), 5 days (fraction); higher = more cells survive
[1] = compound: CC1=CC=C(C=C1)C(=O)CN2C3=C(CCCC3)SC2=N [Pifithrin_alpha] + Cc1cc(Nc2cc(N3CCN(C)CC3)nc(Sc3ccc(NC(=O)C4CC4)cc3)n2)n[nH]1 [Tozasertib] (partner 0.1 µM)
How it was run: (§1)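 The day after seeding in 1536-well plates, lung cancer cell lines were treated by pin tool with a single drug, or with a fixed anchor-drug dose together with five library-drug doses (not always all listed) in √10 steps. After 5 days, a combined fix-and-stain solution (final 0.05% Triton X-100, 1% formaldehyde, 1 ug/ml Hoechst) was added. Nuclei counted on 4× images gave relative viability as treated counts over vehicle counts, reported as the median of duplicate plates.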

[2] = compound: CC1=CC=C(C=C1)C(=O)CN2C3=C(CCCC3)SC2=N [Pifithrin_alpha] + Nc1ncn([C@H]2C[C@H](O)[C@@H](CO)O2)c(=O)n1 [Decitabine] (partner 2 µM)
How it was run: as §1

[3] = compound: CNC(=O)c1ccccc1Sc1ccc2c(/C=C/c3ccccn3)n[nH]c2c1 [Axitinib] + CS(=O)(=O)CCNCc1ccc(-c2ccc3ncnc(Nc4ccc(OCc5cccc(F)c5)c(Cl)c4)c3c2)o1 [Lapatinib] (partner 2 µM)
How it was run: as §1

[4] = compound: Nc1nc(Nc2ccc3c(c2)CC[C@@H](N2CCCC2)CC3)nn1-c1cc2c(nn1)-c1ccccc1CCC2 [Bemcentinib] + COc1cccc2cc(-c3nc([C@H]4CC[C@H](C(=O)O)CC4)n4ncnc(N)c34)[nH]c12 [OSI-027] (partner 0.5 µM)
How it was run: as §1

NCI-H650
relative viability ([1]; first compound 3.162 µM): 0.79
relative viability ([1]; first compound 10 µM): 0.678
relative viability ([1]; first compound 31.62 µM): 0.548
relative viability ([1]; first compound 100 µM): 0.624
relative viability ([2]; first compound 3.162 µM): 0.323
relative viability ([2]; first compound 10 µM): 0.335
relative viability ([2]; first compound 31.62 µM): 0.235
relative viability ([2]; first compound 100 µM): 0.275
relative viability ([3]; first compound 0.005 µM): 0.792
relative viability ([3]; first compound 0.01581 µM): 0.837
relative viability ([3]; first compound 0.05 µM): 1.08
relative viability ([3]; first compound 0.1581 µM): 0.919
relative viability ([3]; first compound 0.5 µM): 0.932
relative viability ([4]; first compound 0.04 µM): 0.468
relative viability ([4]; first compound 0.1265 µM): 0.501
relative viability ([4]; first compound 0.4 µM): 0.582
relative viability ([4]; first compound 1.265 µM): 0.496
relative viability ([4]; first compound 4 µM): 0.512
